Assay results as given in PubChem BioAssay AID326 (DTP/NCI, 2004).
Several values for one entry are separate records, joined by “and”; a condition that tells them apart may be missing. Identical values can stand only once. Inconclusive results and toxic doses are left out. Numbered stars: 1 amine (or outer) side, 2 acyl side, 3 side chain; on linkers, the order of the positions; unused ones are H or OH. Bridge positions count the residues as written; N and C are the ends. Square brackets hold non-standard residues; d marks the D form. Peptide text beside a SMILES is read from it. I, II: the chains in the order shown. Actinocin(9to1) = Cc1c2oc3c(C)ccc(C(=O)[*:1])c3nc-2c(C(=O)[*:2])c(N)c1=O; aThr = C[C@H](O)[C@H](N)C(=O)O; NMeV = CN[C@H](C(=O)O)C(C)C; Sar = CNCC(=O)O

Test system: CD2F1 mice, P388/DHAQ leukemia ip, median survival T/C
Experiment: NCI In Vivo Anticancer Drug Screen. Data for tumor model P388 Leukemia resistant to Dihydroxy Anthracenedione; NSC 299195 (intraperitoneal) in CD2F1 (CDF1) mice
Conditions: endpoint: median survival time, higher = longer survival
Protocol: The antitumor activity of compounds was measured in mice bearing transplantable tumors. Survival or tumor size were measured and the results are expressed as the measurement made in the treated group (T) divided by the measurement made in the vehicle treated control group (C). The tumor model used in this assay is P388 Leukemia resistant to Dihydroxy Anthracenedione; NSC 299195 (intraperitoneal) in CD2F1 (CDF1) mice

[1] = dose: 64.8 mg/kg/injection, schedule: Q04DX003 (ip), vehicle: saline
[2] = dose: 108.0 mg/kg/injection, schedule: Q04DX003 (ip), vehicle: saline
[3] = dose: 4.32 mg/kg/injection, schedule: Q04DX003 (ip), vehicle: saline

COC(=O)C[C@](O)(CCCC(C)(C)O)C(=O)O[C@@H]1C(OC)=C[C@]23CCCN2CCc2cc4c(cc2[C@H]13)OCO4
T/C (dose: 3.0 mg/kg/injection, schedule: Q04DX003 (ip), vehicle: saline): 116 % of control | T/C (dose: 3.33 mg/kg/injection, schedule: Q04DX003 (ip), vehicle: saline): 154 % of control

CCN(CC)CCNc1ccc(C)c2sc3ccccc3c(=O)c12
T/C (dose: 16.2 mg/kg/injection, schedule: Q01DX005 (ip), vehicle: saline): 106 % of control | T/C (dose: 19.4 mg/kg/injection, schedule: Q01DX005 (ip), vehicle: saline): 100 % of control | T/C (dose: 19.44 mg/kg/injection, schedule: Q01DX005 (ip), vehicle: saline): 106 % of control | T/C (dose: 27.0 mg/kg/injection, schedule: Q01DX005 (ip), vehicle: saline): 107 % of control | T/C (dose: 32.4 mg/kg/injection, schedule: Q01DX005 (ip), vehicle: saline): 102 % of control and 113 % of control | T/C (dose: 38.9 mg/kg/injection, schedule: Q04DX003 (ip), vehicle: saline): 106 % of control | T/C (dose: 45.0 mg/kg/injection, schedule: Q01DX005 (ip), vehicle: saline): 121 % of control | T/C (dose: 54.0 mg/kg/injection, schedule: Q01DX005 (ip), vehicle: saline): 106 % of control and 124 % of control | T/C [1]: 104 % of control | T/C (dose: 90.0 mg/kg/injection, schedule: Q01DX005 (ip), vehicle: saline): 112 % of control | T/C [2]: 120 % of control | T/C (dose: 125.0 mg/kg/injection, schedule: Q01DX005 (ip), vehicle: saline): 105 % of control

CC[C@@]1(O)C[C@H](OC2CC(N(C)C)C(OC3CC(O)C(OC4CCC(=O)C(C)O4)C(C)O3)C(C)O2)c2c(cc3c(c2O)C(=O)c2c(O)cccc2C3=O)[C@H]1C(=O)OC (some centres not stated)
T/C [3]: 120 % of control | T/C (dose: 12.0 mg/kg/injection, schedule: Q04DX003 (ip), vehicle: saline): 196 % of control

CC(=O)N(C)c1ccc(Nc2cc(C)[nH]c3ccc4ncnc4c23)cc1
T/C (dose: 19.4 mg/kg/injection, schedule: Q04DX002 (ip), vehicle: saline): 98 % of control | T/C (dose: 20.7 mg/kg/injection, schedule: Q04DX002 (ip), vehicle: saline): 98 % of control | T/C (dose: 32.4 mg/kg/injection, schedule: Q04DX002 (ip), vehicle: saline): 94 % of control | T/C (dose: 34.6 mg/kg/injection, schedule: Q04DX002 (ip), vehicle: saline): 91 % of control | T/C (dose: 54.0 mg/kg/injection, schedule: Q04DX002 (ip), vehicle: saline): 116 % of control | T/C (dose: 57.6 mg/kg/injection, schedule: Q04DX002 (ip), vehicle: saline): 94 % of control | T/C (dose: 96.0 mg/kg/injection, schedule: Q04DX002 (ip), vehicle: saline): 108 % of control | T/C (dose: 160.0 mg/kg/injection, schedule: Q04DX002 (ip), vehicle: saline): 98 % of control

O=C(Nc1ccc(C2=NCCN2)cc1)c1ccc(C(=O)Nc2ccc(C3=NCCN3)cc2)c(Cl)c1
T/C (dose: 16.2 mg/kg/injection, schedule: Q04DX003 (ip), vehicle: saline with Tween-80): 94 % of control | T/C (dose: 27.0 mg/kg/injection, schedule: Q04DX003 (ip), vehicle: saline with Tween-80): 98 % of control | T/C (dose: 45.0 mg/kg/injection, schedule: Q04DX003 (ip), vehicle: saline with Tween-80): 97 % of control

Cc1c2oc3c(C)ccc(C(=O)N[C@@H]4C(=O)N[C@H](C(C)C)C(=O)N5CCC[C@H]5C(=O)N(C)CC(=O)N(C)[C@@H](C(C)C)C(=O)O[C@H]4C)c3nc-2c(C(=O)N[C@@H]2C(=O)N[C@H](C(C)C)C(=O)N3CCC[C@H]3C(=O)N(C)CC(=O)N(C)[C@@H](C(C)C)C(=O)O[C@H]2C)c(N)c1=O (I: [aThr][dV]P[Sar][NMeV] / II: [aThr][dV]P[Sar][NMeV]; ester I:1-I:C, II:1-II:C; linker I:N-II:N via Actinocin(9to1))
T/C (dose: 108.0 micrograms/kg/injection, schedule: Q04DX003 (ip), vehicle: saline + alcohol): 152 % of control and 154 % of control | T/C (dose: 130.0 micrograms/kg/injection, schedule: Q04DX003 (ip), vehicle: saline + alcohol): 152 % of control | T/C (dose: 180.0 micrograms/kg/injection, schedule: Q04DX003 (ip), vehicle: saline + alcohol): 157 % of control and 176 % of control | T/C (dose: 216.0 micrograms/kg/injection, schedule: Q04DX003 (ip), vehicle: saline + alcohol): 200 % of control | T/C (dose: 300.0 micrograms/kg/injection, schedule: Q04DX003 (ip), vehicle: saline + alcohol): 192 % of control and 201 % of control | T/C (dose: 360.0 micrograms/kg/injection, schedule: Q04DX003 (ip), vehicle: saline + alcohol): 206 % of control | T/C (dose: 500.0 micrograms/kg/injection, schedule: Q04DX003 (ip), vehicle: saline + alcohol): 209 % of control | T/C (dose: 600.0 micrograms/kg/injection, schedule: Q04DX003 (ip), vehicle: saline + alcohol): 227 % of control

NCCCN=c1ccc2c3c1c(O)c1c(O)ccc(=O)c1c3[nH]n2CCNCCO
T/C (dose: 9.72 mg/kg/injection, schedule: Q04DX002 (ip), vehicle: water): 124 % of control | T/C (dose: 27.0 mg/kg/injection, schedule: Q04DX002 (ip), vehicle: water): 97 % of control | T/C (dose: 45.0 mg/kg/injection, schedule: Q04DX002 (ip), vehicle: water): 97 % of control

COc1cc([C@@H]2c3cc4c(cc3[C@@H](OC3OC5CO[C@@H](c6cccs6)OC5C(O)C3O)[C@H]3COC(=O)[C@H]23)OCO4)cc(OC)c1O (some centres not stated)
T/C (dose: 3.89 mg/kg/injection, schedule: Q04DX003 (ip), vehicle: clinical formulation): 114 % of control | T/C (dose: 3.89 mg/kg/injection, schedule: Q04DX003 (ip), vehicle: saline): 118 % of control | T/C (dose: 6.48 mg/kg/injection, schedule: Q04DX003 (ip), vehicle: clinical formulation): 121 % of control | T/C (dose: 7.78 mg/kg/injection, schedule: Q04DX003 (ip), vehicle: saline): 108 % of control | T/C (dose: 10.8 mg/kg/injection, schedule: Q04DX003 (ip), vehicle: clinical formulation): 122 % of control | T/C (dose: 13.0 mg/kg/injection, schedule: Q04DX003 (ip), vehicle: saline): 108 % of control | T/C (dose: 21.6 mg/kg/injection, schedule: Q04DX003 (ip), vehicle: saline): 111 % of control | T/C (dose: 36.0 mg/kg/injection, schedule: Q04DX003 (ip), vehicle: saline): 120 % of control

CC(CN1CC(=O)NC(=O)C1)N1CC(=O)NC(=O)C1 (configuration not stated)
T/C [1]: 101 % of control | T/C [2]: 104 % of control | T/C (dose: 180.0 mg/kg/injection, schedule: Q04DX003 (ip), vehicle: saline): 107 % of control | T/C (dose: 500.0 mg/kg/injection, schedule: Q04DX003 (ip), vehicle: saline): 123 % of control

CCC1(O)CC2CN(CCc3c([nH]c4ccccc34)C(C(=O)OC)(c3cc4c(cc3OC)N(C)C3C(O)(C(N)=O)C(O)C5(CC)C=CCN6CCC43C65)C2)C1 (configuration not stated) (tested in a mixture with another compound)
T/C (dose: 0.65 mg/kg/injection, schedule: Q04DX003 (ip), vehicle: clinical formulation): 173 % of control | T/C (dose: 1.08 mg/kg/injection, schedule: Q04DX003 (ip), vehicle: clinical formulation): 182 % of control | T/C (dose: 1.8 mg/kg/injection, schedule: Q04DX003 (ip), vehicle: clinical formulation): 208 % of control | T/C (dose: 3.0 mg/kg/injection, schedule: Q04DX003 (ip), vehicle: clinical formulation): 87 % of control

COc1cc(NS(C)(=O)=O)ccc1Nc1c2ccccc2nc2ccccc12
T/C (dose: 2.59 mg/kg/injection, schedule: Q04DX002 (ip), vehicle: other): 108 % of control and 114 % of control (2×) | T/C (dose: 2.59 mg/kg/injection, schedule: Q04DX003 (ip), vehicle: saline): 107 % of control | T/C [3]: 117 % of control

Cc1c2ccncc2c(C)c2c1[nH]c1ccccc12
T/C (dose: 13.0 mg/kg/injection, schedule: Q04DX003 (ip), vehicle: saline with Tween-80): 101 % of control and 107 % of control | T/C (dose: 25.9 mg/kg/injection, schedule: Q04DX002 (ip), vehicle: saline with Tween-80): 97 % of control | T/C (dose: 32.4 mg/kg/injection, schedule: Q04DX002 (ip), vehicle: Klucel (hydroxypropylcellulose) (HPC)): 111 % of control | T/C (dose: 43.2 mg/kg/injection, schedule: Q04DX002 (ip), vehicle: saline with Tween-80): 105 % of control | T/C (dose: 54.0 mg/kg/injection, schedule: Q04DX002 (ip), vehicle: Klucel (hydroxypropylcellulose) (HPC)): 100 % of control | T/C (dose: 60.0 mg/kg/injection, schedule: Q04DX003 (ip), vehicle: saline with Tween-80): 116 % of control and 223 % of control and 98 % of control | T/C (dose: 72.0 mg/kg/injection, schedule: Q04DX002 (ip), vehicle: saline with Tween-80): 112 % of control | T/C (dose: 90.0 mg/kg/injection, schedule: Q04DX002 (ip), vehicle: Klucel (hydroxypropylcellulose) (HPC)): 88 % of control | T/C (dose: 120.0 mg/kg/injection, schedule: Q04DX002 (ip), vehicle: saline with Tween-80): 114 % of control | T/C (dose: 150.0 mg/kg/injection, schedule: Q04DX002 (ip), vehicle: Klucel (hydroxypropylcellulose) (HPC)): 83 % of control
